In PubChem BioAssay AID1259407 (Chemical Carcinogenesis Research Information System (CCRIS), 2018):
Calls of active or inactive are those of the source. The rule behind the calls is not given here.

System: CCRIS mutagenicity, Ames/micronucleus/aberration tests
Assay: CCRIS mutagenicity studies
[1] = Test System: AMES SALMONELLA TYPHIMURIUM, Strain/Indicator: TA98, Metabolic Activation: NONE, Method: PREINCUBATION
[2] = Test System: AMES SALMONELLA TYPHIMURIUM, Strain/Indicator: TA100, Metabolic Activation: NONE, Method: PREINCUBATION
[3] = Test System: AMES SALMONELLA TYPHIMURIUM, Strain/Indicator: TA1535, Metabolic Activation: NONE, Method: PREINCUBATION
[4] = Test System: AMES SALMONELLA TYPHIMURIUM, Strain/Indicator: TA1537, Metabolic Activation: NONE, Method: PREINCUBATION
[5] = Test System: AMES SALMONELLA TYPHIMURIUM, Strain/Indicator: TA100, Metabolic Activation: NONE, Method: STANDARD PLATE
[6] = Test System: AMES SALMONELLA TYPHIMURIUM, Strain/Indicator: TA102, Metabolic Activation: NONE, Method: STANDARD PLATE
[7] = Test System: AMES SALMONELLA TYPHIMURIUM, Strain/Indicator: TA98, Metabolic Activation: NONE, Method: STANDARD PLATE

Measured: mutagenic call

CCOC(=O)C1OC1(C)c1ccccc1 (stereo unspecified)
inactive: Test System: AMES SALMONELLA TYPHIMURIUM, Strain/Indicator: TA98, Metabolic Activation: HAMSTER, LIVER, S-9, AROCLOR 1254 (10%), Method: PREINCUBATION inactive; negative | [1] inactive; negative | Test System: AMES SALMONELLA TYPHIMURIUM, Strain/Indicator: TA98, Metabolic Activation: RAT, LIVER, S-9, AROCLOR 1254 (10%), Method: PREINCUBATION inactive; negative | Test System: AMES SALMONELLA TYPHIMURIUM, Strain/Indicator: TA100, Metabolic Activation: HAMSTER, LIVER, S-9, AROCLOR 1254 (10%), Method: PREINCUBATION inactive; negative | [2] inactive; negative | Test System: AMES SALMONELLA TYPHIMURIUM, Strain/Indicator: TA100, Metabolic Activation: RAT, LIVER, S-9, AROCLOR 1254 (10%), Method: PREINCUBATION inactive; negative | Test System: AMES SALMONELLA TYPHIMURIUM, Strain/Indicator: TA1535, Metabolic Activation: HAMSTER, LIVER, S-9, AROCLOR 1254 (10%), Method: PREINCUBATION inactive; negative | [3] inactive; negative | Test System: AMES SALMONELLA TYPHIMURIUM, Strain/Indicator: TA1535, Metabolic Activation: RAT, LIVER, S-9, AROCLOR 1254 (10%), Method: PREINCUBATION inactive; negative | Test System: AMES SALMONELLA TYPHIMURIUM, Strain/Indicator: TA1537, Metabolic Activation: HAMSTER, LIVER, S-9, AROCLOR 1254 (10%), Method: PREINCUBATION inactive; negative | [4] inactive; negative | Test System: AMES SALMONELLA TYPHIMURIUM, Strain/Indicator: TA1537, Metabolic Activation: RAT, LIVER, S-9, AROCLOR 1254 (10%), Method: PREINCUBATION inactive; negative
active: End Point: IN VITRO CHROMOSOMAL ABERRATIONS, Test System: CHINESE HAMSTER OVARY CELLS, Metabolic Activation: NONE active; positive; statistically significant increase, but not dose-related | End Point: IN VITRO CHROMOSOMAL ABERRATIONS, Test System: CHINESE HAMSTER OVARY CELLS, Metabolic Activation: RAT, LIVER, S-9, AROCLOR 1254 active; positive

O=c1[nH]c(=O)n([C@H]2C[C@H](O)[C@@H](CO)O2)cc1COO
active: [5] active; positive | [6] active; positive

Cc1nc2c(c3[nH]c4ccccc4c13)C(=O)C=C(N1CC1)C2=O
active: Test System: AMES SALMONELLA TYPHIMURIUM, Strain/Indicator: TA97, Metabolic Activation: NONE, Method: STANDARD PLATE active; positive | Test System: AMES SALMONELLA TYPHIMURIUM, Strain/Indicator: TA97, Metabolic Activation: RAT, LIVER, S-9, AROCLOR 1254, Method: STANDARD PLATE active; positive | [7] active; positive | Test System: AMES SALMONELLA TYPHIMURIUM, Strain/Indicator: TA98, Metabolic Activation: RAT, LIVER, S-9, AROCLOR 1254, Method: STANDARD PLATE active; positive | [5] active; positive | Test System: AMES SALMONELLA TYPHIMURIUM, Strain/Indicator: TA100, Metabolic Activation: RAT, LIVER, S-9, AROCLOR 1254, Method: STANDARD PLATE active; positive | Test System: AMES SALMONELLA TYPHIMURIUM, Strain/Indicator: TA102, Metabolic Activation: RAT, LIVER, S-9, AROCLOR 1254, Method: STANDARD PLATE active; positive
inactive: [6] inactive; negative

C1=Cc2c3cc4ccccc4cc3cc3cccc1c23
active: [7] active; positive | Test System: AMES SALMONELLA TYPHIMURIUM, Strain/Indicator: TA98, Metabolic Activation: RAT, LIVER, S-9, AROCLOR 1254 (0.127 OR 1.27 MG S-9 PROTEIN), Method: STANDARD PLATE active; positive

Nc1nc2c(ccc3ncccc32)s1
active: Test System: AMES SALMONELLA TYPHIMURIUM, Strain/Indicator: TA1538, Metabolic Activation: RAT, LIVER, S-9, AROCLOR 1254, Method: STANDARD PLATE active; positive

O=C1c2ccccc2C(=O)c2c1cc(O)c(CO)c2O
active: [1] active; positive | Test System: AMES SALMONELLA TYPHIMURIUM, Strain/Indicator: TA98, Metabolic Activation: RAT, LIVER, S-9, AROCLOR 1254, Method: PREINCUBATION active; positive | Test System: AMES SALMONELLA TYPHIMURIUM, Strain/Indicator: TA98, Metabolic Activation: RAT, LIVER, S-9, PCB, Method: PREINCUBATION active; positive | [2] active; positive | Test System: AMES SALMONELLA TYPHIMURIUM, Strain/Indicator: TA100, Metabolic Activation: RAT, LIVER, S-9, AROCLOR 1254, Method: PREINCUBATION active; positive | Test System: AMES SALMONELLA TYPHIMURIUM, Strain/Indicator: TA100, Metabolic Activation: RAT, LIVER, S-9, PCB, Method: PREINCUBATION active; positive | Test System: AMES SALMONELLA TYPHIMURIUM, Strain/Indicator: TA102, Metabolic Activation: NONE, Method: PREINCUBATION active; positive | Test System: AMES SALMONELLA TYPHIMURIUM, Strain/Indicator: TA102, Metabolic Activation: RAT, LIVER, S-9, AROCLOR 1254, Method: PREINCUBATION active; positive | Test System: AMES SALMONELLA TYPHIMURIUM, Strain/Indicator: TA102, Metabolic Activation: RAT, LIVER, S-9, Method: PREINCUBATION active; positive | Test System: AMES SALMONELLA TYPHIMURIUM, Strain/Indicator: TA104, Metabolic Activation: NONE, Method: PREINCUBATION active; positive | Test System: AMES SALMONELLA TYPHIMURIUM, Strain/Indicator: TA104, Metabolic Activation: RAT, LIVER, S-9, AROCLOR 1254, Method: PREINCUBATION active; positive | [4] active; positive | Test System: AMES SALMONELLA TYPHIMURIUM, Strain/Indicator: TA1537, Metabolic Activation: RAT, LIVER, S-9, AROCLOR 1254, Method: PREINCUBATION active; positive | Test System: AMES SALMONELLA TYPHIMURIUM, Strain/Indicator: TA1537, Metabolic Activation: RAT, LIVER, S-9, Method: PREINCUBATION active; positive | Test System: AMES SALMONELLA TYPHIMURIUM, Strain/Indicator: TA1538, Metabolic Activation: NONE, Method: PREINCUBATION active; positive | Test System: AMES SALMONELLA TYPHIMURIUM, Strain/Indicator: TA1538, Metabolic Activation: RAT, LIVER, S-9, AROCLOR 1254, Method: PREINCUBATION active; positive | Test System: CHINESE HAMSTER V-79, Strain/Indicator: V-79/AZAGUANINE, Metabolic Activation: NONE, Method: STANDARD PLATE active; positive | Test System: UDS RODENT HEPATOCYTES, Strain/Indicator: THY INCORP, Metabolic Activation: NONE active; positive
inactive: [3] inactive; negative | Test System: AMES SALMONELLA TYPHIMURIUM, Strain/Indicator: TA1535, Metabolic Activation: RAT, LIVER, S-9, AROCLOR 1254, Method: PREINCUBATION inactive; negative

CCN(Cc1cccc(S(=O)(=O)[O-])c1)c1ccc(C(=C2C=CC(=[N+](C)C)C=C2)c2ccc(N(CC)Cc3cccc(S(=O)(=O)O)c3)cc2)cc1
active: Test System: AMES SALMONELLA TYPHIMURIUM, Strain/Indicator: TA98, Metabolic Activation: HAMSTER, LIVER, S-9, AROCLOR 1254 (30%), Method: PREINCUBATION active; positive | Test System: AMES SALMONELLA TYPHIMURIUM, Strain/Indicator: TA98, Metabolic Activation: RAT, LIVER, S-9, AROCLOR 1254 (30%), Method: PREINCUBATION active; positive | Test System: AMES SALMONELLA TYPHIMURIUM, Strain/Indicator: TA98, Metabolic Activation: RAT, LIVER, S-9, KC500 OR PHENOBARBITAL, Method: LIQUID SUSPENSION active; positive | Test System: Mouse lymphoma, Strain/Indicator: L5178Y (tk+/tk-), Metabolic Activation: None, Method: Suspension/plate active; positive
inactive: [1] inactive; negative | Test System: AMES SALMONELLA TYPHIMURIUM, Strain/Indicator: TA100, Metabolic Activation: HAMSTER, LIVER, S-9, AROCLOR 1254 (30%), Method: PREINCUBATION inactive; negative | [2] inactive; negative | Test System: AMES SALMONELLA TYPHIMURIUM, Strain/Indicator: TA100, Metabolic Activation: RAT, LIVER, S-9, AROCLOR 1254 (30%), Method: PREINCUBATION inactive; negative | Test System: Mouse lymphoma, Strain/Indicator: L5178Y (tk+/tk-), Metabolic Activation: Rat,Liver, S-9, Aroclor 1254, Method: Suspension/plate inactive; negative
